This experiment concerns the target T1, human 11beta-HSD1 (Homo sapiens, UniProt P28845).
T1 construct: made in house; host or cells: HEK293 cells (ATCC CRL-1573), transient transfection with a pcDNA3 construct; microsomal fraction
Kind of experiment: Microsome assay (cortisone to cortisol conversion, ELISA). The experiment is classed as biochemical. To be noted: microsomes from HEK293 cells transiently expressing human 11beta-HSD1; Cortisone 50-200 nM, NADPH 1 mM, 60 min at 37° C.; read-out: h 11-beta-HSD 1 IC50. As for the experimental part:
The cDNA encoding the human 11beta-HSD1 protein was cloned into the expression vector pcDNA3 ([…]). This construct (for details see Alex Odermatt et al.; J Biol Chem., 1999, Vol. 274, Issue 40, 28762-28770) was used to transiently express the protein in HEK293 cells (ATCC number: CRL-1573, described in Graham, F. L., Smiley, J., Russell, W. C., Nairn, R.; (1977)) using lipofectamine. 48 h after transfection cells were washed twice with ice-cold PBS (Phosphate buffered Saline). To 1 volume of cell suspension in PBS 2 volumes of ice-cold lysis buffer (50 mM Tris; pH7.5; 1 mM EDTA; 100 mM NaCl) were added. The cells were lysed by Potter-homogenization (20 strokes). The resulting homogenate was sonicated wit a tip sonicator (10% output; 2×30 sec.) and cleared by a low speed centrifugation (10 min×9000 g; 4° C.). The microsomal fraction was collected by a high speed centrifugation (60 min×110'000 g). […]
Microsomes isolated from HEK293 cells transiently expressing human 11beta-HSD1 (for details see above) were incubated in assay buffer (100 mM NaCl; 1 mM EDTA; 1 mM EGTA; 1 mM MgCl; 250 mM Sucrose; 20 mM Tris pH 7.4; Cortisone 50-200 nM and NADPH 1 mM) together with different concentrations of test substances. […] The amount of Cortisol produced in this assay was determined using a commercially available, ELISA-based Cortisol-detection kit (Distributed by Assay Design, Inc.). […]
(An ELISA detects its analyte on a solid surface through an enzyme-linked reagent.)

T1 sequence (P28845 whole entry): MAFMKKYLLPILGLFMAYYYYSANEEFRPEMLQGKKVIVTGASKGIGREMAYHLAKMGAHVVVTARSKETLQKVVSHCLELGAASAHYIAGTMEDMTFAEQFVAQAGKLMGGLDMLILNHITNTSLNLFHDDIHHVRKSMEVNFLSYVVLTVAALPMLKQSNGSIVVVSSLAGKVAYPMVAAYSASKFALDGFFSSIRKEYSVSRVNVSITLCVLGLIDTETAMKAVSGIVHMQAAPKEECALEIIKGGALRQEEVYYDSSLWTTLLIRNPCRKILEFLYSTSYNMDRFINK

The IC50 is the point on the concentration scale where inhibition reaches its midpoint. Take `Cn1c(C2CC2)c(C2CC2)c(=O)n1-c1ccccc1` [Example 1, 4,5-Dicyclopropyl-1-methyl-2-phenyl-1,2-dihydro-pyrazol-3-one]: the IC50 was 21 nM.

For the compound `Cc1c(C23CC4CC(CC(C4)C2)C3)c(=O)n2n1CCCCC2` [Example 51, 2-adamantan-1-yl-3-methyl-6,7,8,9-tetrahydro-5H-pyrazolo[1,2-a][1,2]diazepin-1-one], the IC50 worked out at 133 nM.

Source of the values: patent US7652057B2, “Pyrazolones as 11b-HSD1 inhibitors for diabetes” (Hoffman-La Roche Inc., priority 2005, dated 2010).
